Source: article PMC11966596, “Perturbation-Modulated Native Mass Spectrometry Excludes a Nonspecific Drug Target Protein Binder Based on Conformation Stability Change” (Analytical Chemistry, 2025)

What was measured:
lysozyme = molecular target: T1, lysozyme (Gallus gallus, UniProt P00698); test: native OPP-ESI-MS, charge state distribution; format: binding; conditions: 100 μM protein, 1 mM ligand; 25 mM ammonium acetate; OPP solvent 10 mM NH4Ac
T1 construct: gene LYZ

[1] = molecular target: DHFR (recombinant human DHFR) (Homo sapiens, UniProt P00374); conditions: 5 μM his-tagged protein; 100 mM ammonium acetate; co-purified NADPH present
DHFR (recombinant human DHFR), sequence (P00374 whole entry): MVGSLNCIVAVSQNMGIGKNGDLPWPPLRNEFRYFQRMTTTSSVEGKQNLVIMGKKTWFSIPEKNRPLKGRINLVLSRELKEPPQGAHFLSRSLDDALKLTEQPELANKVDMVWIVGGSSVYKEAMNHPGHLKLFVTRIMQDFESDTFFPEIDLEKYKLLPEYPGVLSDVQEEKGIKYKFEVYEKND

T1 sequence (P00698 19-147): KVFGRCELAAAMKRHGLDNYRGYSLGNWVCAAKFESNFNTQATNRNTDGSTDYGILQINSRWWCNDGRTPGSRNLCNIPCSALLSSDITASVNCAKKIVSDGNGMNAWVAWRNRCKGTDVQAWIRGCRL

| Compound | R (bound/unbound protein ratio) (lysozyme) | % binding at 100 μM [1] |
| --- | --- | --- |
| CC(=O)N[C@H]1[C@H](O[C@H]2[C@H](O)[C@@H](NC(C)=O)C(O)O[C@@H]2CO)O[C@H](CO)[C@@H](O[C@@H]2O[C@H](CO)[C@@H](O)[C@H](O)[C@H]2NC(C)=O)[C@@H]1O (some centres unmarked) [NTAC] | 0.59 | – |
| Nc1nc(N)c2nc(CNc3ccc(C(=O)N[C@@H](CCC(=O)O)C(=O)O)cc3)cnc2n1 [aminopterin] | – | 100% |
